Assay results reported in publication PMC7496960, “Nonanal modulates oviposition preference in female Helicoverpa assulta (Lepidoptera: Noctuidae) via the activation of peripheral neurons” (Pest Management Science, 2020).

System: T1, HassOR67/Orco (HassOR67/HassOrco; OR67)
T1 construct: full-length ORF from antennal cDNA in pT7Ts; cRNA co-injected with Orco cRNA into Xenopus laevis oocytes; with Odorant receptor coreceptor
Assay: two-electrode voltage clamp, Xenopus oocytes
Type: cell-based, Helicoverpa assulta
Settings: co-expressed with Orco; agonist; holding potential −80 mV; 1 × 10^−7 to 1 × 10^−3 M

EC50: 8.49 µM
SMILES: CCCCCCCCC=O [nonanal]
